Data reported in patent publication US12378294B2, “IL-4 derived peptides for use in the treatment of obesity” (SERODUS APS, priority 2022, dated 2025).
“And” between values parts separate entries of the source, which are not always exact repeats. Identical values can stand only once. Where no end group is shown, it is not given here.

Columns and labels:
type I IL-4R = target: T1, type I IL-4R (Homo sapiens, UniProt P24394); conditions: cited from earlier work
T1 sequence (P24394 26-825): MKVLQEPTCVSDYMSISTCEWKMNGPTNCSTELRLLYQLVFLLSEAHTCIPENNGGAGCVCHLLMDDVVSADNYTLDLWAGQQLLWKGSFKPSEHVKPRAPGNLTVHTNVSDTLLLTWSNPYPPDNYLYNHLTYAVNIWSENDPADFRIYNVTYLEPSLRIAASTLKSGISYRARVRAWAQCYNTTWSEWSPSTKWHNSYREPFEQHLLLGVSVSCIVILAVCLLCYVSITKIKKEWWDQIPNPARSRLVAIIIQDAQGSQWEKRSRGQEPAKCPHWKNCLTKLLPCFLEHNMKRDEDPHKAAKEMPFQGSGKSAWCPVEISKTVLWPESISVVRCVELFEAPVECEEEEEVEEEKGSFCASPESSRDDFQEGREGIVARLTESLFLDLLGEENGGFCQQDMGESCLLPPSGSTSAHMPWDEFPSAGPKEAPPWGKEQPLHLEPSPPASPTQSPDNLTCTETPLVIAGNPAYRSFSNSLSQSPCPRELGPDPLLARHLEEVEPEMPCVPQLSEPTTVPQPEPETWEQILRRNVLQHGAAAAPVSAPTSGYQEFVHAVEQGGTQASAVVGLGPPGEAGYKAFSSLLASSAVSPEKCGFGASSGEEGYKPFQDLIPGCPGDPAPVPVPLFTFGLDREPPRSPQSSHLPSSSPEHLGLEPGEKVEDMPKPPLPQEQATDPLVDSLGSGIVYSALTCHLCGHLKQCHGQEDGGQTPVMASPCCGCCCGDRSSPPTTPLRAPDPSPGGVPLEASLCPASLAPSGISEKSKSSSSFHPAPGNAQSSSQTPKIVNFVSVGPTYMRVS

type II IL-4R = target: T2, type II IL-4R (Homo sapiens, UniProt P24394); conditions: cited from earlier work
T2 sequence (P24394 26-825): T1 sequence (P24394 26-825)

macrophages = conditions: cited from earlier work
IL-4 receptors = target: T3, IL-4 receptors (Homo sapiens, UniProt P24394); conditions: cited from earlier work
T3 sequence (P24394 26-825): T1 sequence (P24394 26-825)

[1] = test system: female mice (BKS.Cg-Dock7m+/+Leptin db/db BLKS); assay: Effect of an IL-4 derived peptide on body weight in db/db mice; assay type: in vivo; conditions: for Effect on weight / weight gain compared to vehicle: treatment group vs vehicle/placebo group, 77 days s.c. once daily
Method: 30 female mice (BKS.Cg-Dock7m+/+Leptin db/db BLKS, 5 weeks of age) were transferred to the Gubra Research animal unit in Denmark. Throughout the habituation and study period, the animals were housed in a light-, temperature-, and -humidity-controlled room with free access to food and water. All animal experiments were conducted in accordance with Gubra bioethical guidelines, which are fully compliant with internationally accepted principles for the care and use of laboratory animals. The body weight of the animals was recorded at the start of the study (baseline), on day 13, day 27, day 34, day 43, day 60 and day 77 (termination of study).
Compound A was prepared using standard solid phase peptide synthesis (SPPS) procedures. Compound A was provided by Phlogo ApS, Copenhagen, Denmark (10 mg/ml miliQ water diluted to the dose formulations). Vehicle was miliQ:PBS 1:5.
The mice were randomized into a vehicle group (n=15) and a 10 mg/kg Compound A (n=15). The compound as well as the vehicle was administered subcutaneously once daily. On day 27, the dose was lowered to 5 mg/kg Compound A (n=15), and on day 43, the dose was lowered to 2.5 mg/kg Compound A (n=15).

Row | Substance | Activity on type I IL-4R (type I IL-4R) | Activity on type II IL-4R (type II IL-4R) | Macrophage activation (macrophages) | Binding to the IL-4 receptors (IL-4 receptors) | Δ Weight ([1]; individual animals 1-15 of treatment group, day 77 minus baseline, s.c. once daily, 10 then 5 then 2.5 mg/kg) | Weight at day 77 ([1]; individual animals 1-15 of treatment group, s.c. once daily, 10 mg/kg, lowered to 5 mg/kg on day 27 and 2.5 mg/kg on day 43, day 77) | Δ Weight (g), mean ([1]; mean of treatment group (n=15), baseline to day 77, s.c. once daily, 10 then 5 then 2.5 mg/kg, placebo mean 5.76) | Weight at day 77 (g), mean ([1]; mean of treatment group (n=15), s.c. once daily, 10 then 5 then 2.5 mg/kg, placebo mean 50.64) | Weight increase during the study period ([1]; treatment group average, baseline to day 77, placebo 12.8%) | Effect on weight / weight gain compared to vehicle [1] | Effect on weight / weight gain compared to vehicle ([1]; listed as compound A)
1 | AQFHRHKQLIRFLKRA [SEQ ID NO:1, 16-residue IL-4 derived peptide, variant of AA71-AA86 of IL-4] | high affinity partial agonist | antagonist | inhibiting macrophage activation | capable of binding to the IL-4 receptors | – | – | – | – | – | – | –
2 | Compound A: dimer of SEQ ID NO:1 (AQFHRHKQLIRFLKRA) connected through a linker (lysine-beta-alanine) at the C-terminals (also: dimer of two chains joined at the C-termini through a Lys-βAla linker) | – | – | – | – | 1.80 g and -1.60 g and 7.30 g and 4.40 g and 4.50 g and 2.70 g and -1.90 g and 8.00 g and 4.20 g and 11.20 g and 11.40 g and 3.20 g and -1.30 g and 0.90 g and 1.40 g | 54.30 g (2×) and 47.30 g and 48.40 g and 52.50 g and 59.10 g and 47.60 g and 37.50 g and 57.30 g and 51.80 g and 58.10 g and 59.40 g and 52.40 g and 49.20 g and 49.40 g | 3.51 g | 48.66 g | 7.8% | significantly decreased the weight | decreased the weight gain
